Measurements published in ChEMBL document CHEMBL3751820, “Synthesis and evaluation of bis-thiazole derivatives as new anticancer agents” (Eur J Med Chem, 2016).
Converted amounts (≈) assume the structure as drawn. The source made the active and inactive calls. The calls are words filed in the database; no cut-off is given here.

Legend:
[1] = Cytotoxicity against rat 5RP7 cells after 24 hrs by MTT assay; type: functional, cell-based; settings: 5RP7, 24 h
[2] = target: T1, Cholinesterase (Homo sapiens, UniProt P06276); test: Inhibition of BuChE (unknown origin) using butyrylthiocholine iodide as substrate at 80 ug/ml by Ellman spectrophotometric method
[3] = tested on: A549; test: Cytotoxicity against human A549 cells after 24 hrs by MTT assay; type: functional, cell-based; settings: A549, 24 h
[4] = target: Acetylcholinesterase (Electrophorus electricus, UniProt O42275); test: Inhibition of electric eel AChE using acetylthiocholine iodide as substrate at by Ellman spectrophotometric method
[5] = tested on: C6; test: Cytotoxicity against rat C6 cells after 24 hrs by MTT assay; type: functional, cell-based; settings: C6, 24 h
[6] = target: T1, Cholinesterase; test: Inhibition of BuChE (unknown origin) using butyrylthiocholine iodide as substrate by Ellman spectrophotometric method
[7] = Cytotoxicity against mouse NIH/3T3 cells after 24 hrs by MTT assay; type: cell-based; settings: NIH3T3, 24 h
[8] = tested on: A549; test: Antiproliferative activity against human A549 cells assessed as inhibition of DNA synthesis after 24 hrs by BrdU incorporation based ELISA; type: functional, cell-based
[9] = tested on: C6; test: Antiproliferative activity against rat C6 cells assessed as inhibition of DNA synthesis after 24 hrs by BrdU incorporation based ELISA; type: functional, cell-based
[10] = tested on: C6; test: Selectivity index, ratio of IC50 for mouse NIH/3T3 cells to IC50 for rat C6 cells; type: functional
[11] = tested on: A549; test: Selectivity index, ratio of IC50 for mouse NIH/3T3 cells to IC50 for human A549 cells; type: functional

T1 sequence (P06276 whole entry): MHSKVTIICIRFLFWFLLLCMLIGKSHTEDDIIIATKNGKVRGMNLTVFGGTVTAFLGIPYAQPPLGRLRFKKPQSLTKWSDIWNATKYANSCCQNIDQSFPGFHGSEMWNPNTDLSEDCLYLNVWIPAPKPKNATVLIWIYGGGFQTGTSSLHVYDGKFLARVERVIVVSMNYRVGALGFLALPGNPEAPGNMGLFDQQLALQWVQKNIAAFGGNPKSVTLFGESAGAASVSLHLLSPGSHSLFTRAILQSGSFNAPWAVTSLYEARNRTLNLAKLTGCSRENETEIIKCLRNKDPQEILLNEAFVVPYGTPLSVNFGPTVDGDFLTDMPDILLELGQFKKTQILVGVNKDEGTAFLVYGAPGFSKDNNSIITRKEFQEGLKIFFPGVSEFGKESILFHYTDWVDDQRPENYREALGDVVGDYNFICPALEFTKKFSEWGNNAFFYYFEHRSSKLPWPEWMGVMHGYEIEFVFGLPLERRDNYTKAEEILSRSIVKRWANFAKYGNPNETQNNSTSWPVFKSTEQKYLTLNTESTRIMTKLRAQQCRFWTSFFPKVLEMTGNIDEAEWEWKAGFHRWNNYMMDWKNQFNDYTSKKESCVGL
Chain of Acetylcholinesterase (O42275 whole entry): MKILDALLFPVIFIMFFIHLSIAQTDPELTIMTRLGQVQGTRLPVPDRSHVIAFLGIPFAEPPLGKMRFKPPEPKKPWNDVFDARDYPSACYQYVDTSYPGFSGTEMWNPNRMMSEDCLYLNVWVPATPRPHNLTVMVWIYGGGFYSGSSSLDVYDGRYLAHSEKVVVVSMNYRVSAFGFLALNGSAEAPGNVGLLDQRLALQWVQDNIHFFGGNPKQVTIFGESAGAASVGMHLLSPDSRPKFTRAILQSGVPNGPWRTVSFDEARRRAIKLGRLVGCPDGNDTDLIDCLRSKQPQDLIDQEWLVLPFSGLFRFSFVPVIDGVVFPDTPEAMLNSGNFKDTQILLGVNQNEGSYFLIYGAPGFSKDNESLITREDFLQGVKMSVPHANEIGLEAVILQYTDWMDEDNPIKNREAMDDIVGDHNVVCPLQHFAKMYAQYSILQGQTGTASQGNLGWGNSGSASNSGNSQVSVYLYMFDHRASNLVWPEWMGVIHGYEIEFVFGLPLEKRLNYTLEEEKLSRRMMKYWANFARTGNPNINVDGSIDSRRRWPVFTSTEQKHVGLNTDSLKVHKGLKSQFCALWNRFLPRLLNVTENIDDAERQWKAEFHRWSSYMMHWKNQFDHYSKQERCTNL

SMILES	IC50 [1] [mg/L]	inhibition [2]	IC50 [3] [mg/L]	IC50 [4] [µM]	IC50 [5] [mg/L]	IC50 [6] [µM]	IC50 [7] [mg/L]	Activity [8]	Activity [9]	Ratio IC50 [10]	Ratio IC50 [11]
COc1cc(-c2ccc(Nc3nc(-c4ccc(Cl)c(Cl)c4)cs3)c(OC)c2)ccc1Nc1nc(-c2ccc(Cl)c(Cl)c2)cs1	207 (≈ 295 µM)	53.5%	147 (≈ 209 µM)	16.3	90 (≈ 128 µM)	110	> 200				
COc1cc(-c2ccc(Nc3nc(-c4cc(Cl)ccc4Cl)cs3)c(OC)c2)ccc1Nc1nc(-c2cc(Cl)ccc2Cl)cs1	54.3 (≈ 77.6 µM)	36.2%	102 (≈ 145 µM)	97.1	38.3 (≈ 54.7 µM)	> 114	162 (≈ 231 µM)				
COc1cc(-c2ccc(Nc3nc(-c4ccc(Cl)cc4)cs3)c(OC)c2)ccc1Nc1nc(-c2ccc(Cl)cc2)cs1	207 (≈ 327 µM)	39.1%	105 (≈ 166 µM)	42.7	147 (≈ 232 µM)	> 127	112 (≈ 177 µM)				
COc1ccc(-c2csc(Nc3ccc(-c4ccc(Nc5nc(-c6ccc(OC)cc6)cs5)c(OC)c4)cc3OC)n2)cc1	13.3 (≈ 21.4 µM)	74.5%	58.3 (≈ 93.6 µM)	12.4	28.7 (≈ 46.1 µM)	107	98.3 (≈ 158 µM)	Active	inactive		
COc1cc(-c2ccc(NC(N)=S)c(OC)c2)ccc1NC(N)=S	25.3 (≈ 69.9 µM)	26.7%	178 (≈ 492 µM)	57.7	165 (≈ 455 µM)	> 221	195 (≈ 538 µM)				
COc1cc(-c2ccc(Nc3nc(-c4ccc(C)cc4)cs3)c(OC)c2)ccc1Nc1nc(-c2ccc(C)cc2)cs1	> 500	40.9%	98.3 (≈ 166 µM)	45.8	21 (≈ 35.5 µM)	> 135	153 (≈ 260 µM)	Active	inactive		
COc1cc(-c2ccc(Nc3nc(-c4ccc(Cl)cc4Cl)cs3)c(OC)c2)ccc1Nc1nc(-c2ccc(Cl)cc2Cl)cs1	> 500	84.4%	133 (≈ 190 µM)	8.37	80 (≈ 114 µM)	47.6	> 200				
COc1cc(-c2ccc(Nc3nc(-c4ccc([N+](=O)[O-])cc4)cs3)c(OC)c2)ccc1Nc1nc(-c2ccc([N+](=O)[O-])cc2)cs1	5.83 (≈ 8.93 µM)	27.9%	82.3 (≈ 126 µM)	15.9	33.3 (≈ 51 µM)	> 123	147 (≈ 225 µM)	Active	inactive		
COc1cc(-c2ccc(Nc3nc(-c4ccc(Br)cc4)cs3)c(OC)c2)ccc1Nc1nc(-c2ccc(Br)cc2)cs1	68.3 (≈ 94.8 µM)	inactive	37.3 (≈ 51.8 µM)	15.9	11.3 (≈ 15.7 µM)		132 (≈ 183 µM)	Active	inactive	11.65	3.53
COc1ccc(OC)c(-c2csc(Nc3ccc(-c4ccc(Nc5nc(-c6cc(OC)ccc6OC)cs5)c(OC)c4)cc3OC)n2)c1	12.3 (≈ 18.1 µM)	56.9%	125 (≈ 183 µM)	55.7	103 (≈ 151 µM)	58	170 (≈ 249 µM)				
O=C1c2c(O)ccc(O)c2C(=O)c2c(NCCNCCO)ccc(NCCNCCO)c21 [MITOXANTRONE]	0.73 (≈ 1.64 µM)		15.7 (≈ 35.3 µM)								
COc1cc(-c2ccc(Nc3nc(-c4ccccc4)cs3)c(OC)c2)ccc1Nc1nc(-c2ccccc2)cs1	28 (≈ 49.8 µM)	inactive	103 (≈ 184 µM)	16.6	49.3 (≈ 87.6 µM)		112 (≈ 198 µM)				
